Reference: patent publication US11806393B2, “Flavivirus peptide sequences, epitopes, and methods and uses thereof” (priority 2017, dated 2023)

Test system: CD8+ T cells
Test: IFNγ ELISPOT, ZIKV-infected Ifnar-/- HLA-B*0702 transgenic mice
Format: cell-based, mouse
Conditions: HLA-B*0702 mice, 7 days after 1×10^2 FFU ZIKV FSS13025
Protocol: (§1) Two ZIKV strains, MR766 (Uganda, 1947) and FSS13025 (Cambodia, 2010), were obtained from the World Reference Center for Emerging Viruses and Arboviruses (WRCEVA). The mouse-adapted DENV2 strain S221 is a triple-plaque purified clone derived from DENV2 D2S1038. Both ZIKV and DENV2 were amplified in C6/36 mosquito cells, and viral titers were measured using baby hamster kidney (BHK)-21 cell-based focus forming assay (FFA). For epitope screening, 5-week old mice (female or male) were infected retro-orbitally (R.O.) with either 1×102 FFU of ZIKV FSS13025 or ZIKV MR766, or 2×10^4 FFU of DENV2 S221 in 200 μl 10% FBS/PBS. Seven days after infection, CD8^+ T cells were isolated from splenocytes and used for ELISPOT assay, while the splenocytes were directly used for ICS assay. Additionally, 5-week old mice were inoculated I.P. with 2×10^3 FFU of DENV2 S221 for 4 weeks.
(§2) CD8^+ T cells were isolated from splenocytes using magnetic bead positive selection (Miltenyi Biotec, Germany) 7 days after virus infection. 2×10^5 CD8^+ T cells were stimulated with 1×10^5 LPS-blasts loaded with 10 μg of individual peptide in 96-well flat-bottom plates (IMMOBILON™-P; Millipore, Bedford, Mass.) that were coated with anti-IFNγ mAb (clone AN18; Mabtech, Stockholm, Sweden) in triplicate. Concanavalin A (ConA) was used as positive control. After 20 hours of incubation, biotinylated anti-mouse IFNγ mAb (R4-6A2; Mabtech), followed by ABC peroxidase (Vector Laboratories, Burlingame, Calif., USA) and then 3-amino-9-ethylcarbazole (Sigma-Aldrich, St. Louis, Mo., USA) were added into the wells. […] A peptide inducing a magnitude of >500 SFCs/10^6 CD8^+ T cells was considered as an immunodominant peptide.
Two independent experiments performed in triplicate were averaged and the error bars represent the SEM. The data are expressed as the mean number of spot forming cells (SFC) per 10^6 CD8^+ T cells. The criteria for positivity were net SFC per 10^6 cells of >20, and a stimulation index of >2.0 when compared with the negative control. Dotted lines represent the cutoff value. * Indicates a positive response. […] ConA denotes Concanavalin A.

Sequence	SFC/10^6 CD8+ T cells, FSS13025
GPMPVTHASA [FSS/MR-NS3427-436]	140 SFC/10^6 CD8+ T cells

Same assay, conditions: HLA-B*0702 mice, 7 days after 1×10^2 FFU ZIKV MR766

Sequence	SFC/10^6 CD8+ T cells, MR766
APTQGSASSL [FSS/MR-NS561-70]	98 SFC/10^6 CD8+ T cells
GPMPVTHASA [FSS/MR-NS3427-436]	204 SFC/10^6 CD8+ T cells
KPTVDIEL [FSS/MR-E38-45]	103 SFC/10^6 CD8+ T cells
SPNKYVVNSSTA [FSS/MR-NS4B210-220]	195 SFC/10^6 CD8+ T cells

Test system: CD8+ T cells
Test: IFNγ ELISPOT, DENV2 S221-infected Ifnar-/- HLA-B*0702 transgenic mice
Format: cell-based, mouse
Conditions: HLA-B*0702 mice, 7 days after 2×10^4 FFU DENV2 S221
Protocol: as §1, §2
The following results are with respect to FIG. 14A and FIG. 14B, where Ifnar^−/− HLA-B*0702 transgenic mice were infected R.O. with 2×10^4 FFU of DENV2 strain S221 for 7 days. CD8^+ T cells isolated from splenocytes were stimulated with each of the 37 ZIKV epitopes identified via IFNγELISPOT to perform (FIG. 14A) IFNγELISPOT and (FIG. 14B) ICS assay. Data represent the average of two independent IFNγELISPOT experiments and two independent ICS experiments (n=7 mice) and are expressed as mean±SEM. Dotted line corresponds to the cutoff value. *, P<0.05.

Sequence	SFC/10^6 CD8+ T cells, S221
APTQGSASSL [FSS/MR-NS561-70]	47 SFC/10^6 CD8+ T cells
GPMPVTHASA [FSS/MR-NS3427-436]	136 SFC/10^6 CD8+ T cells
KPTVDIEL [FSS/MR-E38-45]	51 SFC/10^6 CD8+ T cells
SPNKYVVNSSTA [FSS/MR-NS4B210-220]	49 SFC/10^6 CD8+ T cells

Test system: CD44+ CD4+ T cells
Test: ICS, ZIKV SD001-infected Ifnar1-/- HLA-DRB1*0101 mice
Format: cell-based, mouse
Conditions: 7 days after ZIKV SD001, 6 h stimulation
Protocol: Ifnar1^−/− HLA-DRB1*0101 mice were infected retro-orbitally with 1×10^2 FFU of ZIKV strain SD001 for 7 days. Splenocytes were stimulated in vitro with the indicated ZIKV-derived HLA-DRB1*0101-binding peptides for 6 h, and the frequency of CD44^+ CD4^+ T cells producing IFNγ, TNF, or IFNγ plus TNF (A), IL-2 (B), and IL-17 (C) were detected using the ICS assay. Data represent the mean±s.e.m. of four independent experiments (n=3-5 mice/experiment; total 16 mice). *P<0.05, **P<0.01, ***P<0.001, ****P<0.0001 by two-tailed Mann-Whitney test. Negative and positive refer to cells incubated alone or with PMA/ionomycin, respectively. […]
(§3) For the 30-peptide epitope screen, 5-week-old female or male mice were infected retro-orbitally (r.o.) with either 1×10^2 focus-forming units (FFU) of ZIKV SD001 or 2×10^3 FFU of DENV2 S221 in 200 μl of 10% fetal bovine serum in phosphate-buffered saline (FBS/PBS). Seven days after infection, spleens were removed and single-cell splenocyte suspensions were prepared. A total of 1×10^6 splenocytes was plated in each well of a 96-well U-bottom plate and stimulated with individual peptides (20 μg crude peptide per well) for 6 h. One hour into the incubation, brefeldin A (GolgiPlug, BD Biosciences) was added to the cells. Positive and negative controls were splenocytes stimulated with phorbol-12-myristate-13-acetate (PMA, 0.1 μg/ml) and ionomycin (1 μg/ml) or incubated alone, respectively.
(§4) After incubation of splenocytes with peptides or PMA/ionomycin, cells were harvested, washed, and incubated with Fc Block (CD16/CD32 mAb 2.4G2, BD Biosciences), followed by staining with fixable Live/Dead blue viability stain (Life technologies) and the following antibodies: PerCP-Cy5.5-conjugated anti-CD3 mAb (clone 145-2C11, Tonbo), APC-eFluor780-conjugated anti-CD4 mAb (clone GK1.5, Invitrogen), Brilliant Violet (BV) 785-conjugated anti-CD44 mAb (clone IMT, Biolegend), PE-conjugated anti-CD11a (clone M17/4, Biolegend), BV605-conjugated anti-CD49d (clone 9C10(MFR4.B, Biolegend), PE-conjugated anti-CD25 mAb (clone PC61, Biolegend), PE-conjugated or biotin-conjugated anti-CD185 mAb (CXCR5, clone SPRC15; Invitrogen), BV 605-conjugated anti-[…] mAb (PD1, clone 29F.1A12; Biolegend), and/or BV 421-conjugated streptavidin (#405225, Biolegend). Cells were then fixed and permeabilized using Cytofix/Cytoperm solution (BD Biosciences), followed by staining with FITC-conjugated anti-IFNγ mAb (clone XMG1.2, Tonbo), Alexa Fluor 700- or APC-conjugated anti-TNF mAb (clone MP6-XT22, eBioscience), PE-, BV 421-, or BV 711-conjugated anti-IL-2 mAb (clone JES6-5H4, Biolegend), APC-conjugated anti-IL-4 mAb (clone 11B11, Biolegend), PE-conjugated anti-IL-5 mAb (clone TRFK5, eBioscience), BV510-conjugated anti-IL-17A mAb (clone 17B7, eBioscience), and/or Alexa Fluor 700-conjugated anti-FoxP3 mAb (clone FJK-16S, eBioscience). Data were collected using an LSR Fortessa flow cytometer (BD Biosciences) and analyzed using FlowJo software X 10.0.7 (Tree Star).

Sequence	% CD4+ CD44+ T cells (ZIKV) IL-2+	% CD4+ CD44+ T cells (ZIKV) INFγ+	% CD4+ CD44+ T cells (ZIKV) INFγ+ TNFα+	% CD4+ CD44+ T cells (ZIKV) TNFα+
FGGLKRLPAGLLLGH [C27-41]	0.08%	0.191%	0.1%	–
FLRFTAIKPSLGLIN [C53-67]	–	0.265%	–	–
GAAFGVMEALGTLPG [NS3601-NS4A12]	–	0.203%	0.102%	–
GAAFKSLFGGMSWFS [E450-464]	–	0.183%	0.078%	–
IKKFKKDLAAMLRII [C81-95]	–	0.19%	–	–
LALIAAFKVRPALLV [NS2A66-80]	–	0.167%	0.058%	–
RAIWYMWLGARFLEP [NS5222-236]	0.21%	0.607%	0.333%	0.571%

Same assay, conditions: ZIKV SD001, day 7

Sequence	cytokines produced by ZIKV-primed CD4+ T cells on peptide stimulation
FGGLKRLPAGLLLGH [C27-41]	stimulated IFNγ, TNF, and IL-2 production
FLRFTAIKPSLGLIN [C53-67]	produce only IFNγ
GAAFGVMEALGTLPG [NS3601-NS4A12]	stimulated IFNγ plus TNF production
GAAFKSLFGGMSWFS [E450-464]	stimulated IFNγ plus TNF production
IKKFKKDLAAMLRII [C81-95]	produce only IFNγ
LALIAAFKVRPALLV [NS2A66-80]	stimulated IFNγ plus TNF production
RAIWYMWLGARFLEP [NS5222-236]	stimulated IFNγ, TNF, and IL-2 production

Same assay, conditions: ZIKV-primed CD4+ T cells

Sequence	identification as Th1 epitope (IFNγ, TNF, IL-2 ICS)	identification as Th17 epitope (IL-17 ICS)
FGGLKRLPAGLLLGH [C27-41]	Th1 epitopes	–
FLRFTAIKPSLGLIN [C53-67]	Th1 epitopes	–
GAAFGVMEALGTLPG [NS3601-NS4A12]	Th1 epitopes	–
GAAFKSLFGGMSWFS [E450-464]	Th1 epitopes	–
IKKFKKDLAAMLRII [C81-95]	Th1 epitopes	Th17 epitope
LALIAAFKVRPALLV [NS2A66-80]	Th1 epitopes	–
RAIWYMWLGARFLEP [NS5222-236]	Th1 epitopes	–

Test system: CD44+ CD4+ T cells
Test: ICS, DENV2 S221-infected Ifnar1-/- HLA-DRB1*0101 mice
Format: cell-based, mouse
Conditions: 7 days after DENV2 S221, 6 h stimulation
Protocol: Ifnar1^−/− HLA-DRB1*0101 mice were infected intraperitoneally with 2×10^3 FFU of DENV2 strain […] for 7 days. Splenocytes were stimulated in vitro with the indicated ZIKV-derived HLA-DRB1*0101-binding peptides for 6 h. The frequency of CD44^+ CD4^+ T cells producing IFNγ, TNF, or IFNγ plus TNF (A) or IL-2 (B) were detected using the ICS assay. Data represent the mean±s.e.m. of three independent experiments (n=3-4 mice/experiment; total 10 mice). *P<0.05, **P<0.01, ***P<0.001, ****P<0.0001 by two-tailed Mann-Whitney test. Negative and positive refer to cells incubated alone or with PMA/ionomycin, respectively.
as §3, §4

Sequence	% CD4+ CD44+ T cells (DENV) INFγ+	% CD4+ CD44+ T cells (DENV) INFγ+ TNFα+	% CD4+ CD44+ T cells (DENV) TNFα+	% CD4+ CD44+ T cells (DENV) IL-2+
LALIAAFKVRPALLV [NS2A66-80]	0.39%	0.343%	0.199%	–
RAIWYMWLGARFLEP [NS5222-236]	0.82%	1.451%	0.8%	0.643%

Same assay, conditions: DENV2 S221, day 7

Sequence	cross-reactive response by DENV2-primed CD4+ T cells	cytokines produced by DENV2-primed CD4+ T cells on peptide stimulation
LALIAAFKVRPALLV [NS2A66-80]	elicited cross-reactive responses	induced IFNγ-plus TNF-producing cells
RAIWYMWLGARFLEP [NS5222-236]	elicited cross-reactive responses	induced cells producing IFNγ, TNF, and IL-2

Test system: CD44+ CD4+ T cells
Test: ICS, naive or DENV2-immune Ifnar1-/- HLA-DRB1*0101 mice challenged with ZIKV
Format: cell-based, mouse
Conditions: DENV2-immune mice, day 7 after ZIKV challenge
Text: Ifnar1−/−HLA-DRB1*0101 mice were primed intraperitoneally with 2×103 FFU of DENV2 S221 for 4 weeks. Naïve mice and DENV2-immune mice were challenged retro-orbitally with 1×10^4 FFU of ZIKV strain SD001 for 3 or 7 days. Splenocytes were stimulated in vitro with the indicated ZIKV-specific and DENV2/ZIKV-cross-reactive epitopes. The frequency of CD44+ CD4+ T cells producing IFNγ, IFNγ plus TNF, or IL-2 were detected using the ICS assay. (E) The combined data for positive peptide responses in (FIGS. 27A-27D). Numbers in parentheses indicate the number of positive peptides. Data represent the mean±s.e.m. of three or four independent experiments, with a total of 9 mice/group for A and C, 14/group for B, and 15/group for D. *P<0.05, **P<0.01, ***P<0.001, ****P<0.0001 by two-tailed Mann-Whitney test. Negative and positive refer to cells incubated alone or with PMA/ionomycin, respectively.
Five-week-old female or male mice were inoculated intraperitoneally (i.p.) with 2×10^3 FFU of DENV2 S221. […] Positive and negative controls were included in all experiments.
as §4

Sequence	CD4+ T cell response to peptide
FGGLKRLPAGLLLGH [C27-41]	increased responses
FLRFTAIKPSLGLIN [C53-67]	increased responses
GAAFGVMEALGTLPG [NS3601-NS4A12]	increased responses
GAAFKSLFGGMSWFS [E450-464]	increased responses
LALIAAFKVRPALLV [NS2A66-80]	increased responses
RAIWYMWLGARFLEP [NS5222-236]	increased responses

Same assay, conditions: DENV2-primed mice, day 3 after ZIKV challenge

Sequence	CD4+ T cell response (IFNγ, IL-2, IFNγ plus TNF)
RAIWYMWLGARFLEP [NS5222-236]	strong response

Same assay, conditions: naive mice, day 7 after ZIKV challenge

Sequence	expansion of peptide-reactive CD4+ T cells
FGGLKRLPAGLLLGH [C27-41]	significant expansion
GAAFGVMEALGTLPG [NS3601-NS4A12]	significant expansion
IKKFKKDLAAMLRII [C81-95]	significant expansion
LALIAAFKVRPALLV [NS2A66-80]	significant expansion
RAIWYMWLGARFLEP [NS5222-236]	significant expansion
